From patent US20170239237A1, “PYRROLOQUINOLINE DERIVATIVES AS 5-HT6 ANTAGONISTS, PREPARATION METHOD AND USE THEREOF” (Uniwersytet Jagiellonski, priority 2013, published 2017) come the findings set out here.

Read-outs that look alike come from different tables or passages of the source.

The target of one assay is T1, 5-HT1A receptor (Homo sapiens, UniProt P08908).
T1 sequence (P08908 1-422): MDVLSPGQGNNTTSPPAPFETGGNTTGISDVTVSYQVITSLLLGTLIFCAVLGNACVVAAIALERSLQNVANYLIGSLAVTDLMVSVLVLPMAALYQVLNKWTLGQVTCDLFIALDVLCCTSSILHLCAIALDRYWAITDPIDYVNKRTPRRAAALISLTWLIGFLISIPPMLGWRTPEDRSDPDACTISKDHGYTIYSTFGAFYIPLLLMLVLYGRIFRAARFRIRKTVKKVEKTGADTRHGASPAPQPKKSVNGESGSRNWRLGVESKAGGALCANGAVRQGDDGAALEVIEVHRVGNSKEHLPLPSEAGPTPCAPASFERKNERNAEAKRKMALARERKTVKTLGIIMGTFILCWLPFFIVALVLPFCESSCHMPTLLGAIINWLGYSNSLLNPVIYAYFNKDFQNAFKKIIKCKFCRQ
The assay can be described thus: Radioligand binding, 5-HT1A ([3H]-8-OH-DPAT displacement).

Another assay has as its target dopamine D2L receptor (Homo sapiens, UniProt P14416). Description: Radioligand binding, D2 ([3H]-raclopride displacement).
Another assay addresses 5-HT7 receptor (Homo sapiens, UniProt P34969). The assay can be described thus: Radioligand binding, 5-HT7 ([3H]-5-CT displacement).
The target in assay [1] is T2, 5-HT6 receptor (Homo sapiens, UniProt P50406). The assay can be described thus: Radioligand binding, 5-HT6 ([3H]-LSD displacement).
Assay [2] concerns the target T2, 5-HT6 receptor. The assay can be described thus: CHO-human-5HT6-Aequorin functional assay (ago-/antagonism). Particulars: test concentration not given; for % inhibition of control agonist response: agonist effect, CHO-human-5HT6-Aequorin cells; for % inhibition of control antagonist response: antagonist effect vs 10^-6 M α-methylserotonin induced luminescence.
Setting [3] is: read-out: Ki 5-HT6, cloned human receptor in HEK293, three independent experiments, SEM ± 22%.

dopamine D2L receptor, sequence (P14416 whole entry): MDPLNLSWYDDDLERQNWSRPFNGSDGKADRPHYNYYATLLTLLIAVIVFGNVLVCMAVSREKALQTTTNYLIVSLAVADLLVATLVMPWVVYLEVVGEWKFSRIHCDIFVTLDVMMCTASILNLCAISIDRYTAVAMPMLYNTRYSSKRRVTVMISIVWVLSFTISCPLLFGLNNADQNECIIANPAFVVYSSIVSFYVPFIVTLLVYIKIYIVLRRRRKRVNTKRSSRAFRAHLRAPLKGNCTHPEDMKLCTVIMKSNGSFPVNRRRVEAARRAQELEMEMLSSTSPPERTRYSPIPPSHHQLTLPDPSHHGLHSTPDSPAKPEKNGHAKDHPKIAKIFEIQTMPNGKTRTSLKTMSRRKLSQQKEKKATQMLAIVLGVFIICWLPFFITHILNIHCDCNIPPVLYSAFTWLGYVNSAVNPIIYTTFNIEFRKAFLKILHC
5-HT7 receptor, sequence (P34969 1-432 limits assumed): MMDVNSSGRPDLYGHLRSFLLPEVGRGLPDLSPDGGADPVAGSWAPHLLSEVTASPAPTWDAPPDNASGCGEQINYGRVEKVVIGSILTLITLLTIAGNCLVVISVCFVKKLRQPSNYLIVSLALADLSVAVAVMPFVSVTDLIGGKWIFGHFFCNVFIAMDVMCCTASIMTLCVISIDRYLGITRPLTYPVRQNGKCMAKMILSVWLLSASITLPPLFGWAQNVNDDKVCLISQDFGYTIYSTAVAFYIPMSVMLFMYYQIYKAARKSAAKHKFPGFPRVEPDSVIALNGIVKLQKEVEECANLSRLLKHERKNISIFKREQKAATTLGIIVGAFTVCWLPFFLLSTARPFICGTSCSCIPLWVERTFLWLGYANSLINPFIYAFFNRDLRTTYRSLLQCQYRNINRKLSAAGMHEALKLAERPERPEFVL
T2 sequence (P50406 whole entry): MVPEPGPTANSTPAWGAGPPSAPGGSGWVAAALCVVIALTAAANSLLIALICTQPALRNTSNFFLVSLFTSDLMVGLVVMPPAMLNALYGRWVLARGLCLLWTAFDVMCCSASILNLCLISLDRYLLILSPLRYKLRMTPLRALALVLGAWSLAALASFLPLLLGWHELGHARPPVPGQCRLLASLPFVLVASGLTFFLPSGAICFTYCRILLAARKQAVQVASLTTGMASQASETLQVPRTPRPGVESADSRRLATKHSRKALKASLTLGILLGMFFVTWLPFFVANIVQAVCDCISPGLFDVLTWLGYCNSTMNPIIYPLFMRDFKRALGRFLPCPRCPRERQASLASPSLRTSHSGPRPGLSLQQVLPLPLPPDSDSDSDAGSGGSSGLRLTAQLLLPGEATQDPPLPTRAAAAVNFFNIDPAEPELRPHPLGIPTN

Regarding `O=S(=O)(c1cccc2cccnc12)n1ccc2c(NC3CCNC3)nc3ccccc3c21` (stereo not drawn) [Compound 22, 1-(quinolin-8-ylsulfonyl)-N-(pyrrolidin-3-yl)-1H-pyrrolo[3,2-c]quinolin-4-amine], the Ki on 5-HT1A receptor was 15.2 µM; at dopamine D2L receptor it was 6.4 µM; on 5-HT7 receptor, 18.5 µM; at 5-HT6 receptor [1], 0.004 µM. Also, on 5-HT6 receptor [2], the “% inhibition of control agonist response” value was found to be 16.4%. Moreover, the “% inhibition of control antagonist response” value at 5-HT6 receptor [2] worked out at 70.2%.

For the molecule `COc1cccc(S(=O)(=O)n2ccc3c(NC4CCNC4)nc4ccccc4c32)c1` (stereo not drawn) [Compound 13, 1-((3-methoxyphenyl)sulfonyl)-N-(pyrrolidin-3-yl)-1H-pyrrolo[3,2-c]quinolin-4-amine], the Ki was 5.19 µM at 5-HT1A receptor, 0.513 µM at dopamine D2L receptor, 4.85 µM at 5-HT7 receptor and 0.006 µM on 5-HT6 receptor [1]. At 5-HT6 receptor [2], the “% inhibition of control agonist response” value was 6.5%. On 5-HT6 receptor [2], the “% inhibition of control antagonist response” value is recorded as 68.8%.

As for `O=S(=O)(c1cccc(Cl)c1)n1ccc2c(N3CCOCC3)nc3ccccc3c21` [Compound 78, 1-((3-chlorophenyl)sulfonyl)-4-(morpholine-4-yl)-1H-pyrrolo[3,2-c]quinoline], the inhibitory constant (Ki) at 5-HT1A receptor came to 457 µM; on dopamine D2L receptor it was 37.2 µM; on 5-HT7 receptor, 20.1 µM; at 5-HT6 receptor [1], 0.157 µM. Moreover, the “% inhibition of control agonist response” value at 5-HT6 receptor [2] is on record as 21.3%. For the same molecule, the “% inhibition of control antagonist response” value on 5-HT6 receptor [2] is 23.8%.

Turning to `O=S(=O)(c1cccc2cccnc12)n1ccc2c(N3CCNCC3)nc3ccccc3c21` [Compound 45, 1-(quinolin-8-ylsulfonyl)-4-(piperazin-1-yl)-1H-pyrrolo[3,2-c]quinoline], the Ki was found to be 0.922 µM on 5-HT1A receptor, 6.34 µM at dopamine D2L receptor, 7.81 µM on 5-HT7 receptor and 0.005 µM on 5-HT6 receptor [1]. On 5-HT6 receptor [2], the “% inhibition of control agonist response” value came to 7.8%. Moreover, the “% inhibition of control antagonist response” value on 5-HT6 receptor [2] turned out to be 75.8%.

Regarding `N#Cc1cccc(S(=O)(=O)n2ccc3c(N4CCNCC4)nc4ccccc4c32)c1` [Compound 38, 1-((3-cyanophenyl)sulfonyl)-4-(piperazin-1-yl)-1H-pyrrolo[3,2-c]quinoline], the Ki at 5-HT1A receptor was 0.218 µM; on dopamine D2L receptor, 4.69 µM; on 5-HT7 receptor it was 2.39 µM; at 5-HT6 receptor [1] it was 0.014 µM. In addition, the “% inhibition of control agonist response” value at 5-HT6 receptor [2] is 7.0%. Further, the “% inhibition of control antagonist response” value on 5-HT6 receptor [2] came out at 61.3%.

With `CC(C)c1ccc(S(=O)(=O)n2ccc3c(N4CCNCC4)nc4ccccc4c32)cc1` [Compound 40, 1-((4-isopropylphenyl)sulfonyl)-4-(piperazin-1-yl)-1H-pyrrolo[3,2-c]quinoline], the inhibition constant Ki is 0.148 µM on 5-HT1A receptor, 2.54 µM at dopamine D2L receptor, 3.26 µM on 5-HT7 receptor and 0.014 µM at 5-HT6 receptor [1] (setting [3]). For the same molecule, on 5-HT6 receptor [2], the “% inhibition of control agonist response” value was −5.2%. On 5-HT6 receptor [2], the “% inhibition of control antagonist response” value stood at 65.3%.

Regarding `CN1CCN(c2nc3ccccc3c3c2ccn3S(=O)(=O)c2cccc3cccnc23)CC1` [Compound 59, 1-(quinolin-8-ylsulfonyl)-4-(4-methylpiperazin-1-yl)-1H-pyrrolo[3,2-c]quinolone], the inhibition constant Ki is 0.208 µM on 5-HT1A receptor (read-out: Ki 5-HT1A, cloned human receptor in HEK293, three independent experiments, SEM ± 22%); 1.92 µM at dopamine D2L receptor (read-out: Ki D2, cloned human receptor in HEK293, three independent experiments, SEM ± 22%); 7.69 µM at 5-HT7 receptor (read-out: Ki 5-HT7, cloned human receptor in HEK293, three independent experiments, SEM ± 22%); less than 0.001 µM on 5-HT6 receptor [1] (setting [3]). Moreover, the “% inhibition of control agonist response” value on 5-HT6 receptor [2] turned out to be 16.9%. Also, the “% inhibition of control antagonist response” value at 5-HT6 receptor [2] stood at 61.0%.

On to `O=S(=O)(c1cccc2ccccc12)n1ccc2c(NC3CCNC3)nc3ccccc3c21` (stereo not drawn) [Compound 21, 1-(naphthalen-1-ylsulfonyl)-N-(pyrrolidin-3-yl)-1H-pyrrolo[3,2-c]quinolin-4-amine], for which the inhibition constant Ki at 5-HT1A receptor amounted to 5.33 µM; at dopamine D2L receptor, 2.26 µM; on 5-HT7 receptor it was 1.42 µM; on 5-HT6 receptor [1], 0.019 µM. The “% inhibition of control agonist response” value at 5-HT6 receptor [2] is recorded as 10.6%. Further, the “% inhibition of control antagonist response” value at 5-HT6 receptor [2] turned out to be 60.0%.
